According to PubChem BioAssay (NCI):
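Exposure lasted 48 hours, with cells grown in 96-well plates and compounds tested at five concentrations. TGI denotes the concentration required for complete inhibition of growth.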

Assays:
Assay in all cases: NCI-60 cell line screen, 48 h
SF-295 CNS = tested on: SF-295 CNS
DU-145 prostate = tested on: DU-145 prostate
MOLT-4 leukemia = tested on: MOLT-4 leukemia
UO-31 renal = tested on: UO-31 renal
HCC-2998 colon = tested on: HCC-2998 colon
NCI-H23 lung = tested on: NCI-H23 lung
NCI/ADR-RES ovarian = tested on: NCI/ADR-RES ovarian
EKVX NSCLC = tested on: EKVX NSCLC
SN12C renal = tested on: SN12C renal
UACC-257 melanoma = tested on: UACC-257 melanoma
MCF7 breast = tested on: MCF7 breast
HCT-116 colon = tested on: HCT-116 colon
HT29 colon = tested on: HT29 colon
CAKI-1 renal = tested on: CAKI-1 renal
OVCAR-5 ovarian = tested on: OVCAR-5 ovarian
KM12 colon = tested on: KM12 colon
SK-OV-3 ovarian = tested on: SK-OV-3 ovarian
HOP-62 NSCLC = tested on: HOP-62 NSCLC
HS 578T breast = tested on: HS 578T breast
M14 melanoma = tested on: M14 melanoma

Structure (SMILES)	TGI (SF-295 CNS)	TGI (DU-145 prostate)	TGI (MOLT-4 leukemia)	TGI (UO-31 renal)	TGI (HCC-2998 colon)	TGI (NCI-H23 lung)	TGI (NCI/ADR-RES ovarian)	TGI (EKVX NSCLC)	TGI (SN12C renal)	TGI (UACC-257 melanoma)	TGI (MCF7 breast)	TGI (HCT-116 colon)	TGI (HT29 colon)	TGI (CAKI-1 renal)	TGI (OVCAR-5 ovarian)	TGI (KM12 colon)	TGI (SK-OV-3 ovarian)	TGI (HOP-62 NSCLC)	TGI (HS 578T breast)	TGI (M14 melanoma)
Cc1nc2sc(CCl)nn2c(=O)c1Cl	31.1 µM	29.7 µM	26.7 µM	27.6 µM	37.7 µM	33.3 µM	50.8 µM	27.7 µM	26.6 µM	29.7 µM	18.1 µM	26.2 µM	26.2 µM	24.8 µM	28.7 µM	25.2 µM	28.1 µM	32.1 µM	47.3 µM	26.9 µM
CCOC(=O)C(c1c[nH]c2ccccc12)(c1c[nH]c2ccccc12)c1c[nH]c2ccccc12	> 100 µM	> 100 µM	40.8 µM	> 100 µM	45.3 µM	> 100 µM	> 100 µM	> 100 µM	> 100 µM	> 100 µM	90.2 µM	> 100 µM	> 100 µM	> 100 µM	> 100 µM	98.7 µM	> 100 µM	> 100 µM	76.2 µM	> 100 µM
O=C1NC(N2CCOCC2)=N/C1=C\c1cccs1	> 100 µM	> 100 µM	> 100 µM	> 100 µM	> 100 µM	> 100 µM	> 100 µM	> 100 µM	> 100 µM	> 100 µM	> 100 µM	> 100 µM	> 100 µM	> 100 µM	> 100 µM	> 100 µM	> 100 µM	> 100 µM	> 100 µM	> 100 µM
Fc1cc(C2=C[C@H](c3ccc(Cl)cc3)NC(=S)N2)c(Cl)cc1Cl	> 100 µM	> 100 µM	> 100 µM	> 100 µM	79.8 µM	> 100 µM	> 100 µM	> 100 µM	79.6 µM	> 100 µM	> 100 µM	> 100 µM	> 100 µM	> 100 µM	> 100 µM	> 100 µM	> 100 µM	> 100 µM	> 100 µM	> 100 µM
